# PubChem BioAssay AID588712 (The Scripps Research Institute Molecular Screening Center, 2011)
# Where “and” joins values, the source holds several entries; their conditions need not be identical. Equal entries are not always repeated. Calls of active or inactive are those of the source. How the calls were made is not given here.
# Molecular target: Insulin-degrading enzyme (Homo sapiens) (UniProt P14735)
# Experiment: inhibitors of cellular IDE activity, late-stage follow-up, cell-based, fluorescence polarization (AID 588712)
# Insulin-degrading enzyme (Homo sapiens), sequence (P14735 whole entry, looked up): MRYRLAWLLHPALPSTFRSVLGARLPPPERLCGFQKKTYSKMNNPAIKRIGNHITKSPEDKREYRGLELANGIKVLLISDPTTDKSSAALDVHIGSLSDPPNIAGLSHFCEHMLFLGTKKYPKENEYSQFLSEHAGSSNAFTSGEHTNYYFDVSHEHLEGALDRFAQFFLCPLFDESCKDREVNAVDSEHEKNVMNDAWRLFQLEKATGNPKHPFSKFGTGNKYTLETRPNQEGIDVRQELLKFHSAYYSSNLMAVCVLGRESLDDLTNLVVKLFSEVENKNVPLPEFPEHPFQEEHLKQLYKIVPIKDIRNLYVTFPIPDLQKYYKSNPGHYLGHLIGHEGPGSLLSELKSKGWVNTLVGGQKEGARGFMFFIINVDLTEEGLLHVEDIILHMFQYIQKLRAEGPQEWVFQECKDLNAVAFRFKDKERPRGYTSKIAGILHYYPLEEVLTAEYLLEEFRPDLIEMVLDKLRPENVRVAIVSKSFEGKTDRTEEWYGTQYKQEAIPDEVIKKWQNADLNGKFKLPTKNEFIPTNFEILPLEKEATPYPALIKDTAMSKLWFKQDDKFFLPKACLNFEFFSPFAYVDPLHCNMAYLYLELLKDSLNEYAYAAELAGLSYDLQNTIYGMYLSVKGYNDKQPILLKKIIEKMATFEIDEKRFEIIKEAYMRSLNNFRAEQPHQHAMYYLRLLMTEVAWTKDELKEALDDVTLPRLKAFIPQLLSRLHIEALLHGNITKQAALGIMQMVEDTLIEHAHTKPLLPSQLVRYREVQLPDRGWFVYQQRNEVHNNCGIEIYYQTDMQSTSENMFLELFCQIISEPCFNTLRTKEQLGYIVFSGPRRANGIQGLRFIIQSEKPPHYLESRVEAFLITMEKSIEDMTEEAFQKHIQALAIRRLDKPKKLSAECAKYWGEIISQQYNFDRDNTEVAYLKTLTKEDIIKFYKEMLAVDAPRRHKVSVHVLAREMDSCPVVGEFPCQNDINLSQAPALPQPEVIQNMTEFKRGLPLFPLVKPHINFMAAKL
row,Structure (SMILES),IC50
1,COc1ccc(NC(=O)CSc2nnc(CN3CCOCC3)n2C)cc1Cl,> 54.7 µM (inactive)
2,O=C(Nc1cccc(C(F)(F)F)c1)c1csc(Cc2cccc(C(F)(F)F)c2)n1,> 54.7 µM (inactive)
3,O=C(Nc1cccc(C(F)(F)F)c1)c1csc(-c2ccncc2)n1,5.74 µM
4,O=C(CSc1nnc(-c2cccc(Cl)c2)n1Cc1ccco1)Nc1ccc2c(c1)OCCO2,> 54.7 µM (inactive)
5,Cc1ccc(-c2nc(C(=O)Nc3cccc(C(F)(F)F)c3)cs2)cc1,> 54.7 µM (inactive)
6,CCOc1ccc2[nH]c3c(N4CCN(C(=O)c5ccco5)CC4)ncnc3c2c1,inactive
7,COc1cccc(-c2nnc(SCc3nc4ccccc4[nH]3)n2Cc2ccco2)c1,9.38 µM
8,O=C(Nc1cccc(C(F)(F)F)c1)c1csc(-c2ccccc2)n1,> 54.7 µM (inactive)
9,Clc1cccc(-c2nnc(SCc3nc4ccccc4[nH]3)n2Cc2ccco2)c1,3.09 µM
10,CCN(CC)c1ccc(/C=C2\C(=N)N3N=C(CC(=O)N4CCOCC4)SC3=NC2=O)cc1,inactive
11,Cc1nc(-c2cccnc2)sc1C(=O)Nc1cccc(C(F)(F)F)c1,> 54.7 µM (inactive)
12,O=C(Nc1cccc(C(F)(F)F)c1)c1csc(-c2cccc(C(F)(F)F)c2)n1,> 54.7 µM (inactive)
13,O=C(Nc1ccc2oc(-c3cccnc3)nc2c1)c1ccc2c(c1)OCCO2,> 54.7 µM (inactive)
14,COc1ccc(C(=O)N2CCN(C(=O)C3COc4ccccc4O3)CC2)cc1OC (stereo unspecified),> 54.7 µM (inactive)
15,O=C(C1CC1)N1CCN(c2ccnc3cc(Cl)ccc23)CC1,> 54.7 µM (inactive)
16,Cn1c(=O)c(C(=O)CN2CCCc3ccccc32)c(N)n(Cc2ccccc2)c1=O,> 54.7 µM (inactive)
17,COc1ccc(-c2nc(C(=O)Nc3cccc(C(F)(F)F)c3)cs2)cc1,> 54.7 µM (inactive)
18,Cc1cccc(-c2nnc(SCc3nc4ccccc4[nH]3)n2Cc2ccco2)c1,9.21 µM and 8.91 µM
19,Cn1c(SCc2nc3ccccc3[nH]2)nnc1-c1cccc(Cl)c1,> 54.7 µM (inactive)
20,Clc1cccc(-c2nnc(SCc3nc4ccccc4[nH]3)n2-c2ccccc2)c1,> 54.7 µM (inactive)
21,CC(Sc1nnc(-c2cccnc2)n1-c1ccccc1F)C(=O)N1CCCc2ccccc21 (stereo unspecified),> 54.7 µM (inactive)

# Next, values leading:
row,IC50,Structure (SMILES)
1,inactive,COc1cc(/C=C2\SC(=S)N(NC(C)=O)C2=O)ccc1OC(=O)c1ccco1
2,> 54.7 µM (inactive),Cc1ccc(C)c(N2C(=N)S/C(=C\c3ccc(-c4ccccc4C(=O)O)o3)C2=O)c1
3,7.32 µM,Cc1c(CCC(=O)NCCCn2ccnc2)c(=O)oc2cc3oc4c(c3cc12)CCCC4
4,> 54.7 µM (inactive),O=C(CSc1nnc(-c2cccc(Cl)c2)n1Cc1ccco1)Nc1ccc2cn[nH]c2c1
5,> 54.7 µM (inactive),Nc1c(C(=O)Nc2nccs2)sc2nc(-c3cccs3)cc(C(F)(F)F)c12
6,> 54.7 µM (inactive),O=C(CSc1nnc(-c2cccc(Cl)c2)n1Cc1ccco1)c1ccc2ccccc2c1
7,> 54.7 µM (inactive),O=C(CSc1nnc(-c2cccc(Cl)c2)n1Cc1ccco1)Nc1ccccc1C(F)(F)F
8,> 54.7 µM (inactive),Cc1ccc(NC(=O)CSc2nnc(-c3cccc(Cl)c3)n2Cc2ccco2)c(C)c1
9,> 54.7 µM (inactive),O=C(Nc1cc(C(F)(F)F)cc(C(F)(F)F)c1)c1csc(-c2ccncc2)n1
10,2.17 µM,O=c1c2ccccc2sn1-c1cc(S(=O)(=O)N2CCOCC2)ccc1N1CCOCC1
